Results reported in the NIST ThermoML archive (doi:10.1021/acs.jced.7b01024).
± gives the expanded uncertainty stated by the source.

Assay: Boiling temperature at pressure P
Conditions: 101.3 kPa; Liquid; Ebulliometric method (Recirculating still)
In the case of `CC(=O)OCC(C)C` [2-methylpropyl ethanoate], the “Boiling temperature at pressure P” value is reported as 116.60 ± 0.2 °C. With `C=CCO` [2-propenol] the “Boiling temperature at pressure P” value was 96.8 ± 0.44 °C. For `CCCCOC(C)=O` [butyl ethanoate], the “Boiling temperature at pressure P” value was 126.00 ± 0.2 °C. For `CCCCOC(=O)CC` [butyl propanoate], the “Boiling temperature at pressure P” value was 145.10 ± 0.2 °C.
